Source: PubChem BioAssay (NCI)
Values joined by “and” are separate entries in the source; they are usually repeats but may differ in a detail not shown here. Identical values can stand only once.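 Results reflect a 48-hour exposure of cells in 96-well plates to compound at five concentrations. The concentration for 50% growth inhibition is given as GI50. TGI is the concentration that stops growth completely.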

Columns and labels:
Test in all cases: inhibition of tumour cell growth, NCI panel, 48 h
COLO 205 colon = system: COLO 205 colon
MALME-3M melanoma = system: MALME-3M melanoma
NCI-H522 lung = system: NCI-H522 lung
M14 melanoma = system: M14 melanoma
TK-10 renal = system: TK-10 renal
T-47D breast = system: T-47D breast
MCF7 breast = system: MCF7 breast
SK-OV-3 ovarian = system: SK-OV-3 ovarian
SF-268 CNS = system: SF-268 CNS
IGROV1 ovarian = system: IGROV1 ovarian
ACHN renal = system: ACHN renal
NCI-H23 lung = system: NCI-H23 lung
SK-MEL-5 melanoma = system: SK-MEL-5 melanoma
HOP-62 NSCLC = system: HOP-62 NSCLC
HL-60(TB) leukemia = system: HL-60(TB) leukemia
CCRF-CEM leukemia = system: CCRF-CEM leukemia
HCT-116 colon = system: HCT-116 colon
786-0 renal = system: 786-0 renal
UACC-257 melanoma = system: UACC-257 melanoma
NCI-H226 lung = system: NCI-H226 lung
PC-3 prostate = system: PC-3 prostate
LOX IMVI melanoma = system: LOX IMVI melanoma
OVCAR-3 ovarian = system: OVCAR-3 ovarian
OVCAR-5 ovarian = system: OVCAR-5 ovarian
UACC-62 melanoma = system: UACC-62 melanoma
K-562 leukemia = system: K-562 leukemia
OVCAR-8 ovarian = system: OVCAR-8 ovarian
SR leukemia = system: SR leukemia
A549 NSCLC = system: A549 NSCLC
OVCAR-4 ovarian = system: OVCAR-4 ovarian
DU-145 prostate = system: DU-145 prostate
NCI/ADR-RES ovarian = system: NCI/ADR-RES ovarian
RPMI-8226 leukemia = system: RPMI-8226 leukemia
KM12 colon = system: KM12 colon
SF-539 CNS = system: SF-539 CNS
HT29 colon = system: HT29 colon
UO-31 renal = system: UO-31 renal
MDA-MB-435 = system: MDA-MB-435
BT-549 breast = system: BT-549 breast
CAKI-1 renal = system: CAKI-1 renal
SK-MEL-2 melanoma = system: SK-MEL-2 melanoma
NCI-H460 lung = system: NCI-H460 lung
RXF 393 renal = system: RXF 393 renal
HS 578T breast = system: HS 578T breast
HCC-2998 colon = system: HCC-2998 colon
SW-620 colon = system: SW-620 colon
EKVX NSCLC = system: EKVX NSCLC
SN12C renal = system: SN12C renal
MOLT-4 leukemia = system: MOLT-4 leukemia
MDA-MB-231 breast = system: MDA-MB-231 breast
HOP-92 NSCLC = system: HOP-92 NSCLC
U251 CNS = system: U251 CNS
SF-295 CNS = system: SF-295 CNS
SNB-19 CNS = system: SNB-19 CNS
A498 renal = system: A498 renal
HCT-15 colon = system: HCT-15 colon
SNB-75 CNS = system: SNB-75 CNS
SK-MEL-28 melanoma = system: SK-MEL-28 melanoma

NCCCNCCCNc1nc2ccccc2c2[nH]c3ccccc3c12
GI50 (COLO 205 colon): 182 nM | TGI (COLO 205 colon): 2120 nM | GI50 (MALME-3M melanoma): 1000 nM | TGI (MALME-3M melanoma): 2740 nM | GI50 (NCI-H522 lung): 7.16 nM | TGI (NCI-H522 lung): 563 nM | GI50 (M14 melanoma): 672 nM | TGI (M14 melanoma): 2350 nM | GI50 (TK-10 renal): 1100 nM | TGI (TK-10 renal): 3680 nM | GI50 (T-47D breast): 334 nM | TGI (T-47D breast): 2690 nM | GI50 (MCF7 breast): 8.04 nM | TGI (MCF7 breast): 1850 nM | GI50 (SK-OV-3 ovarian): 743 nM and 322 nM | TGI (SK-OV-3 ovarian): 4140 nM and 3420 nM | GI50 (SF-268 CNS): 26.4 nM | TGI (SF-268 CNS): 1720 nM | GI50 (IGROV1 ovarian): 83.7 nM | TGI (IGROV1 ovarian): 1030 nM | GI50 (ACHN renal): 112 nM | TGI (ACHN renal): 2820 nM | GI50 (NCI-H23 lung): 93.6 nM | TGI (NCI-H23 lung): 1060 nM | GI50 (SK-MEL-5 melanoma): 362 nM | TGI (SK-MEL-5 melanoma): 1810 nM | GI50 (HOP-62 NSCLC): 63.2 nM | TGI (HOP-62 NSCLC): 1180 nM | GI50 (HL-60(TB) leukemia): 37.5 nM | TGI (HL-60(TB) leukemia): 1300 nM | GI50 (CCRF-CEM leukemia): 126 nM | TGI (CCRF-CEM leukemia): 2420 nM | GI50 (HCT-116 colon): 91 nM | TGI (HCT-116 colon): 1870 nM | GI50 (786-0 renal): 97.5 nM | TGI (786-0 renal): 1560 nM | GI50 (UACC-257 melanoma): 2310 nM | TGI (UACC-257 melanoma): 6200 nM | GI50 (NCI-H226 lung): 125 nM | TGI (NCI-H226 lung): 1600 nM | GI50 (PC-3 prostate): 481 nM | TGI (PC-3 prostate): 2140 nM | GI50 (LOX IMVI melanoma): 36.3 nM | TGI (LOX IMVI melanoma): 1120 nM | GI50 (OVCAR-3 ovarian): 449 nM | TGI (OVCAR-3 ovarian): 2430 nM | GI50 (OVCAR-5 ovarian): 215 nM | TGI (OVCAR-5 ovarian): 1610 nM | GI50 (UACC-62 melanoma): 327 nM | TGI (UACC-62 melanoma): 1730 nM | GI50 (K-562 leukemia): 57.8 nM | GI50 (OVCAR-8 ovarian): 34.6 nM | TGI (OVCAR-8 ovarian): 4300 nM | GI50 (SR leukemia): 5.9 nM | TGI (SR leukemia): 1170 nM | GI50 (A549 NSCLC): 50.9 nM | TGI (A549 NSCLC): 4050 nM | GI50 (OVCAR-4 ovarian): 198 nM | TGI (OVCAR-4 ovarian): 1390 nM | GI50 (DU-145 prostate): 75.6 nM | TGI (DU-145 prostate): 1510 nM | GI50 (NCI/ADR-RES ovarian): 645 nM and 621 nM | TGI (NCI/ADR-RES ovarian): > 100000 nM | GI50 (RPMI-8226 leukemia): 343 nM | TGI (RPMI-8226 leukemia): 3510 nM | GI50 (KM12 colon): 684 nM | TGI (KM12 colon): 3930 nM | GI50 (SF-539 CNS): 156 nM | TGI (SF-539 CNS): 1550 nM | GI50 (HT29 colon): 48.2 nM | TGI (HT29 colon): 1860 nM | GI50 (UO-31 renal): 309 nM | TGI (UO-31 renal): 3170 nM | GI50 (MDA-MB-435): 581 nM | TGI (MDA-MB-435): 2080 nM | GI50 (BT-549 breast): 1050 nM | TGI (BT-549 breast): 2400 nM | GI50 (CAKI-1 renal): 458 nM | TGI (CAKI-1 renal): 2310 nM | GI50 (SK-MEL-2 melanoma): 703 nM | TGI (SK-MEL-2 melanoma): 2420 nM | GI50 (NCI-H460 lung): 39.9 nM | TGI (NCI-H460 lung): 1740 nM | GI50 (RXF 393 renal): 313 nM | TGI (RXF 393 renal): 2130 nM | GI50 (HS 578T breast): 132 nM | TGI (HS 578T breast): 1540 nM | GI50 (HCC-2998 colon): 109 nM | TGI (HCC-2998 colon): 733 nM | GI50 (SW-620 colon): 190 nM | TGI (SW-620 colon): 1640 nM | GI50 (EKVX NSCLC): 2090 nM | TGI (EKVX NSCLC): 5800 nM | GI50 (SN12C renal): 22.4 nM | TGI (SN12C renal): 1280 nM | GI50 (MOLT-4 leukemia): 25.2 nM | TGI (MOLT-4 leukemia): 3620 nM | GI50 (MDA-MB-231 breast): 142 nM | TGI (MDA-MB-231 breast): 1560 nM | GI50 (HOP-92 NSCLC): 173 nM | TGI (HOP-92 NSCLC): 747 nM | GI50 (U251 CNS): 93.8 nM | TGI (U251 CNS): 1320 nM | GI50 (SF-295 CNS): 66.4 nM | TGI (SF-295 CNS): 1610 nM | GI50 (SNB-19 CNS): 78.5 nM | TGI (SNB-19 CNS): 1420 nM | GI50 (A498 renal): 995 nM | TGI (A498 renal): 2440 nM | GI50 (HCT-15 colon): 307 nM | TGI (HCT-15 colon): 4950 nM | GI50 (SNB-75 CNS): 224 nM | TGI (SNB-75 CNS): 1290 nM | GI50 (SK-MEL-28 melanoma): 464 nM | TGI (SK-MEL-28 melanoma): 2100 nM
